Eight compounds from patent publication US10457707B2, “Substituted urea depsipeptide analogs as activators of the CLPP endopeptidase” (priority 2015, dated 2019) can be followed below.

Structures are written as SMILES. Values after ≈ are worked out from the molar mass of the structure shown. Where two headings read alike, the source gives them in different places. *1 amine or outer side, *2 acyl side, *3 side chain or, on linkers, in order; H or OH if unused. Where a SMILES comes first, the peptide text is derived from it. Bridges are numbered along the chain shown (N, C = ends). [ ]: non-standard residue; d: D form. The star is where a group is joined. ξ: configuration not given here. Phe(3,5-F2) = N[C@@H](Cc1cc(F)cc(F)c1)C(=O)O; NH(4-OCF3-phenyl) = FC(F)(F)Oc1ccc(N*)cc1; Morpholine(3S-CO) = O=C(O)[C@@H]1COCCN1; Pro(4S-Me) = C[C@@H]1CN[C@H](C(=O)O)C1; Pro(4R-Me) = C[C@H]1CN[C@H](C(=O)O)C1; NMeaThr = CN[C@H](C(=O)O)[C@H](C)O; Hyp = O=C(O)[C@@H]1C[C@@H](O)CN1; NH(4-Et-phenyl) = CCc1ccc(N*)cc1; NH(4-Me-phenyl) = Cc1ccc(N*)cc1; aThr = C[C@H](O)[C@H](N)C(=O)O; NMeA = CN[C@@H](C)C(=O)O; CO = O=C([*:1])[*:2]; ξP = O=C(O)C1CCCN1

Data set [1] can be described thus: Cytotoxicity assay (CellTiter-Glo cell viability, 72 hours). It counts as cell-based. The note with it: African green monkey. The essentials: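 Viability measured by CellTiter-Glo luminescence after 72-hour compound exposure (serial dilutions, DMSO control) of Vero monolayers seeded at 5000 cells/well in 10% FBS DMEM. IC50 values are the range of two biologically independent experiments, each run in duplicate.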
On the technique in general: ATP-based viability assays read luminescence as a measure of living cells.

Data set [2] has as its system Staphylococcus aureus, ATCC 29213. Description: Minimal inhibitory concentration assay (microbroth dilution). Format: cell-based. As to conditions: ATCC29213, read-out: Minimal Inhibitory Concentrations S. aureus ATCC 29213. The essentials:
(§1)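 Visual read-out; MIC is the lowest drug concentration with no bacterial growth after overnight aerobic incubation at 37 °C. Compound was tested in two-fold dilutions starting at 200 μM final, with an inoculum of approximately 10^5 cfu/mL, following CLSI microdilution guidance.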
Background: Broth dilution looks for growth in wells or tubes with falling amounts of substance.

In data set [3] the test system is Staphylococcus aureus, NRS70. The data set is described as above. It counts as cell-based. The essentials:
as §1

For data set [4], the system named is Bacillus subtilis, ATCC 23857. The description is as above. Format: cell-based. The essentials:
as §1

The target of another data set is T1, Sa-ClpP (Staphylococcus aureus, UniProt Q2G036).
T1 construct: made in house; host or cells: E. coli BL21(DE3)
T1 sequence (Q2G036 1-195): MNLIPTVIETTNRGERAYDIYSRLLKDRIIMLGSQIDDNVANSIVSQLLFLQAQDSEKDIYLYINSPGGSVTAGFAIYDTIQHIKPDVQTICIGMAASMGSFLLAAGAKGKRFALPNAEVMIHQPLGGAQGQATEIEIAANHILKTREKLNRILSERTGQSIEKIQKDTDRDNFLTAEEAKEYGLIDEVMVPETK
In words: ADEP displacement fluorescence polarization assay (FP probe ADEP 2591). Format: binding. In short, it runs like this: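 Probe displacement was measured in mP after compounds sat 120 min at room temperature with pre-equilibrated (1 h) Sa-ClpP (15 μM) and ADEP 2591 FP probe (50 nM) in pH 8.0 Tris-HCl with 2% DMSO. Data were scaled between DMSO and 200 μM ADEP 2378 and fit by variable-slope log-inhibitor regression.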
For orientation: Polarisation of emitted light reports the rotation of a fluorescent probe.

Setting [5] is: Staphylococcus aureus, NRS70; read-out: Minimal Inhibitory Concentrations S. aureus NRS70.
Where [6] appears, read: Bacillus subtilis, ATCC23857; read-out: Minimal Inhibitory Concentrations B. subtilis ATCC 23857.
Setting [7] is: displacement of FP probe ADEP 2591 from Sa-ClpP, read-out: ADEP Displacement IC50.
Where [8] appears, read: Vero cells, 72 hours, growth inhibition, read-out: Cytotoxicity IC50.
Setting [9] is: Staphylococcus aureus, NRS70, read-out: Minimal Inhibitory Concentrations S. aureus NRS70.
The mark [10] stands for this setting: Bacillus subtilis, ATCC23857, read-out: Minimal Inhibitory Concentrations B. subtilis ATCC 23857.

One may read the IC50 as the concentration at which inhibition is half-maximal. In the case of `C[C@H]1C[C@H]2C(=O)O[C@@H](C)[C@H](NC(=O)[C@H](Cc3cc(F)cc(F)c3)NC(=O)Nc3ccc(OC(F)(F)F)cc3)C(=O)N3CCC[C@H]3C(=O)N(C)[C@@H]([C@H](C)O)C(=O)N[C@@H](C)C(=O)N2C1` [Compound 203, (S)-3-(3,5-difluorophenyl)-N-((2S,6S,9S,11aS,17S,18S,20aS)-9-((S)-1-hydroxyethyl)-2,6,10,18-tetramethyl-5,8,11,16,20-pentaoxohexadecahydro-1H,5H,16H-dipyrrolo[2,1-c:2′,1′-l][1]oxa[4,7,10,13]tetraazacyclohexadecin-17-yl)-2-(3-(4-(trifluoromethoxy)phenyl)ureido)propanamide] ({NH(4-OCF3-phenyl)-CO}-[Phe(3,5-F2)][aThr]P[NMeaThr]A[Pro(4S-Me)]; ester 2-C), in data set [1], the IC50 at 72 h turned out to be 25.4 ± 1.8 µM. The MIC in data set [2] came to 0.098 µM (≈ 0.0864 µg/mL); in data set [3] (setting [5]), 0.049 µM (≈ 0.0432 µg/mL); in data set [4] (setting [6]) it was 0.098 µM (≈ 0.0864 µg/mL). In addition, the IC50 at Sa-ClpP (setting [7]) stood at 6.4 ± 0.5 µM.
On to `CCc1ccc(NC(=O)N[C@@H](Cc2cc(F)cc(F)c2)C(=O)N[C@@H]2C(=O)N3CCC[C@H]3C(=O)N(C)[C@@H]([C@H](C)O)C(=O)N[C@@H](C)C(=O)N3C[C@@H](C)C[C@H]3C(=O)O[C@H]2C)cc1` [Compound 204, (S)-3-(3,5-difluorophenyl)-2-(3-(4-ethylphenyl)ureido)-N-((2S,6S,9S,11aS,17S,18S,20aS)-9-((S)-1-hydroxyethyl)-2,6,10,18-tetramethyl-5,8,11,16,20-pentaoxohexadecahydro-1H,5H,16H-dipyrrolo[2,1-c:2′,1′-l][1]oxa[4,7,10,13]tetraazacyclohexadecin-17-yl)propanamide] ({NH(4-Et-phenyl)-CO}-[Phe(3,5-F2)][aThr]P[NMeaThr]A[Pro(4S-Me)]; ester 2-C), for which half-maximal inhibition in data set [1] (IC50 at 72 h) was put at 33.8 ± 1.6 µM. Also, the MIC in data set [2] was found to be 0.098 µM (≈ 0.0809 µg/mL); in data set [3] (setting [5]), 0.098 µM (≈ 0.0809 µg/mL); in data set [4] (setting [6]), 0.049 µM (≈ 0.0405 µg/mL). Further, the 50% inhibitory concentration (IC50) on Sa-ClpP (setting [7]) came to 7 ± 0.4 µM.
Regarding `C[C@@H]1C[C@H]2C(=O)OC[C@H](NC(=O)[C@H](Cc3ccccc3)NC(=O)Nc3ccc(OC(F)(F)F)cc3)C(=O)N3CCC[C@H]3C(=O)N3CCCC[C@H]3C(=O)N[C@@H](C)C(=O)N2C1` [Compound 205], in data set [1], the IC50 at 72 h worked out at 88.3 ± 15.2 µM. Besides, the MIC in data set [2] worked out at 0.39 µM (≈ 0.323 µg/mL); in data set [3] (setting [5]) it was 0.2 µM (≈ 0.166 µg/mL); in data set [4] (B. subtilis ATCC 23857; read-out: Minimal Inhibitory Concentrations B. subtilis ATCC 23857), 0.2 µM (≈ 0.166 µg/mL). On Sa-ClpP, the IC50 amounted to 21.6 ± 1.4 µM.
Turning to `Cc1ccc(NC(=O)N[C@@H](Cc2ccccc2)C(=O)N[C@H]2COC(=O)[C@@H]3C[C@@H](C)CN3C(=O)[C@H](C)NC(=O)[C@@H]3CCCCN3C(=O)[C@@H]3CCCN3C2=O)cc1C` [Compound 206, (S)—N-((2R,6S,8aS,14aS,20S,23aS)-2,6-dimethyl-5,8,14,19,23-pentaoxooctadecahydro-1H,5H,14H,19H-pyrido[2,1-i]dipyrrolo[2,1-c:2′,1′-l][1]oxa[4,7,10,13]tetraazacyclohexadecin-20-yl)-2-(3-(3,4-dimethylphenyl)ureido)-3-phenylpropanamide], the IC50 at 72 h in data set [1] (setting [8]) stood at 74 ± 7.7 µM. The results for the MIC in data set [2], in data set [3] (setting [9]) and in data set [4] (setting [10]) were 0.39 µM (≈ 0.301 µg/mL), 0.39 µM (≈ 0.301 µg/mL) and < 0.2 µM, respectively. The IC50 at Sa-ClpP amounted to 7.1 ± 0.3 µM.
On to `Cc1ccc(NC(=O)N[C@@H](Cc2cc(F)cc(F)c2)C(=O)N[C@H]2COC(=O)[C@@H]3C[C@@H](C)CN3C(=O)[C@H](C)NC(=O)[C@@H]3CCCCN3C(=O)[C@@H]3CCCN3C2=O)cc1C` [Compound 207, (S)-3-(3,5-difluorophenyl)-N-((2R,6S,8aS,14aS,20S,23aS)-2,6-dimethyl-5,8,14,19,23-pentaoxooctadecahydro-1H,5H,14H,19H-pyrido[2,1-i]dipyrrolo[2,1-c:2′,1′-l][1]oxa[4,7,10,13]tetraazacyclohexadecin-20-yl)-2-(3-(3,4-dimethylphenyl)ureido)propanamide], for which the half-inhibitory concentration (IC50) at 72 h in data set [1] (setting [8]) was found to be 31.1 ± 5.6 µM. For the same compound, the MIC in data set [2], in data set [3] (setting [9]) and in data set [4] (setting [10]) was < 0.2 µM in each case. The same compound returned an IC50 at Sa-ClpP of 5.2 ± 0.3 µM.
On to `Cc1ccc(NC(=O)N[C@@H](Cc2cc(F)cc(F)c2)C(=O)N[C@@H]2C(=O)N3CCC[C@H]3C(=O)N3CCOC[C@H]3C(=O)N[C@@H](C)C(=O)N3C[C@H](C)C[C@H]3C(=O)O[C@H]2C)cc1` [Compound 210, (S)-3-(3,5-difluorophenyl)-2-(3-(p-tolyl)ureido)-N-((6aS,12S,13S,15aS,17R,21S,23aS)-13,17,21-trimethyl-6,11,15,20,23-pentaoxooctadecahydro-6H,11H,15H-[1,4]oxazino[3,4-i]dipyrrolo[2,1-c:2′,1′-l][1]oxa[4,7,10,13]tetraazacyclohexadecin-12-yl)propanamide] ({NH(4-Me-phenyl)-CO}-[Phe(3,5-F2)][aThr]P[Morpholine(3S-CO)]A[Pro(4R-Me)]; ester 2-C), for which the IC50 at 72 h in data set [1] (setting [8]) turned out to be 5.82 ± 0.39 µM. The MIC in data set [2] was 0.003 µM (≈ 0.00243 µg/mL); in data set [3] (setting [9]), 0.0002 µM (≈ 0.000162 µg/mL); in data set [4] (setting [10]), 0.02 µM (≈ 0.0162 µg/mL). In addition, the IC50 on Sa-ClpP worked out at 7.1 ± 0.2 µM.
With `C[C@@H]1NC(=O)[C@H](C)N(C)C(=O)[C@@H]2CCCN2C(=O)[C@@H](NC(=O)[C@H](Cc2ccccc2)NC(=O)Nc2ccc(OC(F)(F)F)cc2)COC(=O)C2CCCN2C1=O` (stereo partly drawn) [Compound 213, (2S)-3-phenyl-2-(3-(4-(trifluoromethoxy)phenyl)ureido)-N-((6S,9S,11aS,17S)-6,9,10-trimethyl-5,8,11,16,20-pentaoxohexadecahydro-1H,5H,16H-dipyrrolo[2,1-c:2′,1′-l][1]oxa[4,7,10,13]tetraazacyclohexadecin-17-yl)propanamide] ({NH(4-OCF3-phenyl)-CO}-FSP[NMeA]A[ξP]; ester 2-C), in data set [1], the IC50 at 72 h amounted to 51.8 ± 1 µM. For the same compound, the MIC in data set [2] was 3.12 µM (≈ 2.46 µg/mL); in data set [3] (setting [5]) it was 0.78 µM (≈ 0.614 µg/mL); in data set [4] (setting [6]), < 0.2 µM. At Sa-ClpP, the IC50 amounted to 5 ± 0.4 µM.
With `Cc1ccc(NC(=O)N[C@@H](Cc2cc(F)cc(F)c2)C(=O)N[C@@H]2C(=O)N3C[C@H](O)C[C@H]3C(=O)N(C)[C@@H](C)C(=O)N[C@@H](C)C(=O)N3C[C@@H](C)C[C@H]3C(=O)O[C@H]2C)cc1` [Compound 214, (S)-3-(3,5-difluorophenyl)-N-((2S,6S,9S,11aS,13R,17S,18S,20aS)-13-hydroxy-2,6,9,10,18-pentamethyl-5,8,11,16,20-pentaoxohexadecahydro-1H,5H,16H-dipyrrolo[2,1-c:2′,1′-l][1]oxa[4,7,10,13]tetraazacyclohexadecin-17-yl)-2-(3-(p-tolyl)ureido)propanamide] ({NH(4-Me-phenyl)-CO}-[Phe(3,5-F2)][aThr][Hyp][NMeA]A[Pro(4S-Me)]; ester 2-C), in data set [1] (setting [8]), the IC50 at 72 h is > 100 µM. The MIC in data set [2], in data set [3] (setting [9]) and in data set [4] (setting [10]) was 0.391 µM (≈ 0.312 µg/mL) throughout. Further, the IC50 at Sa-ClpP (setting [7]) was determined as 5.8 ± 0.3 µM.
